Legend:
Assay in all cases: relative viability (nuclei count vs DMSO), 5 days (fraction); higher = more cells survive
CAL-12T = tested on: CAL-12T
Procedure, shortened: (§1)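 Dosing by pin tool came one day after lung cancer cell lines were seeded in 1536-well plates, using either one drug or a fixed anchor-drug dose plus five library-drug doses (not always all listed) in √10 steps. After 5 days, nuclei were counted on 4× images. Relative viability is treated-well nuclei count divided by vehicle-well nuclei count, and values are medians of duplicate plates.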

PC-3 [JPC-3] = tested on: PC-3 [JPC-3]
Procedure, shortened: as §1

NCI-H460 = tested on: NCI-H460
Procedure, shortened: as §1

EMC-BAC-2 = tested on: EMC-BAC-2
Procedure, shortened: as §1

LU99A = tested on: LU99A
Procedure, shortened: as §1

ABC-1 = tested on: ABC-1
Procedure, shortened: as §1

NCI-H1651 = tested on: NCI-H1651
Procedure, shortened: as §1

BEN = tested on: BEN
Procedure, shortened: as §1

HCC-15 = tested on: HCC-15
Procedure, shortened: as §1

NCI-H2023 = tested on: NCI-H2023
Procedure, shortened: as §1

NCI-H358 = tested on: NCI-H358
Procedure, shortened: as §1

NCI-H520 = tested on: NCI-H520
Procedure, shortened: as §1

NCI-H1563 = tested on: NCI-H1563
Procedure, shortened: as §1

201T = tested on: 201T
Procedure, shortened: as §1

COR-L 105 = tested on: COR-L 105
Procedure, shortened: as §1

NCI-H522 = tested on: NCI-H522
Procedure, shortened: as §1

NCI-H727 = tested on: NCI-H727
Procedure, shortened: as §1

NCI-H838 = tested on: NCI-H838
Procedure, shortened: as §1

EKVX = tested on: EKVX
Procedure, shortened: as §1

NCI-H322M = tested on: NCI-H322M
Procedure, shortened: as §1

SW 900 = tested on: SW 900
Procedure, shortened: as §1

LK-2 = tested on: LK-2
Procedure, shortened: as §1

Structure (SMILES): CN1CCN(CCOc2cc(OC3CCOCC3)c3c(Nc4c(Cl)ccc5c4OCO5)ncnc3c2)CC1 [Saracatinib] + Cc1nc(Nc2ncc(C(=O)Nc3c(C)cccc3Cl)s2)cc(N2CCN(CCO)CC2)n1 [Dasatinib] (partner 0.075 µM)
- relative viability (CAL-12T; first compound 0.02 µM): 0.593
- relative viability (CAL-12T; first compound 0.2 µM): 0.451
- relative viability (CAL-12T; first compound 0.6325 µM): 0.47
- relative viability (CAL-12T; first compound 2 µM): 0.294
- relative viability (PC-3 [JPC-3]; first compound 0.02 µM): 0.941
- relative viability (PC-3 [JPC-3]; first compound 0.2 µM): 0.952
- relative viability (PC-3 [JPC-3]; first compound 0.6325 µM): 0.682
- relative viability (PC-3 [JPC-3]; first compound 2 µM): 0.595
- relative viability (NCI-H460; first compound 0.02 µM): 0.587
- relative viability (NCI-H460; first compound 0.2 µM): 0.418
- relative viability (NCI-H460; first compound 0.6325 µM): 0.603
- relative viability (NCI-H460; first compound 2 µM): 0.46
- relative viability (EMC-BAC-2; first compound 0.02 µM): 0.321
- relative viability (EMC-BAC-2; first compound 0.2 µM): 0.286
- relative viability (EMC-BAC-2; first compound 0.6325 µM): 0.324
- relative viability (EMC-BAC-2; first compound 2 µM): 0.294
- relative viability (LU99A; first compound 0.02 µM): 0.567
- relative viability (LU99A; first compound 0.2 µM): 0.578
- relative viability (LU99A; first compound 0.6325 µM): 0.652
- relative viability (LU99A; first compound 2 µM): 0.558
- relative viability (ABC-1; first compound 0.02 µM): 0.673
- relative viability (ABC-1; first compound 0.2 µM): 0.591
- relative viability (ABC-1; first compound 0.6325 µM): 0.616
- relative viability (ABC-1; first compound 2 µM): 0.514
- relative viability (NCI-H1651; first compound 0.02 µM): 0.565
- relative viability (NCI-H1651; first compound 0.2 µM): 0.37
- relative viability (NCI-H1651; first compound 0.6325 µM): 0.439
- relative viability (NCI-H1651; first compound 2 µM): 0.406
- relative viability (BEN; first compound 0.02 µM): 0.329
- relative viability (BEN; first compound 0.6325 µM): 0.373
- relative viability (BEN; first compound 2 µM): 0.418
- relative viability (HCC-15; first compound 0.02 µM): 0.595
- relative viability (HCC-15; first compound 0.2 µM): 0.524
- relative viability (HCC-15; first compound 0.6325 µM): 0.605
- relative viability (HCC-15; first compound 2 µM): 0.561
- relative viability (NCI-H2023; first compound 0.02 µM): 0.664
- relative viability (NCI-H2023; first compound 0.2 µM): 0.651
- relative viability (NCI-H2023; first compound 0.6325 µM): 0.608
- relative viability (NCI-H2023; first compound 2 µM): 0.553
- relative viability (NCI-H358; first compound 0.02 µM): 0.168
- relative viability (NCI-H358; first compound 0.2 µM): 0.16
- relative viability (NCI-H358; first compound 0.6325 µM): 0.18
- relative viability (NCI-H358; first compound 2 µM): 0.103
- relative viability (NCI-H520; first compound 0.02 µM): 0.21
- relative viability (NCI-H520; first compound 0.6325 µM): 0.194
- relative viability (NCI-H520; first compound 2 µM): 0.244
- relative viability (NCI-H1563; first compound 0.02 µM): 0.463
- relative viability (NCI-H1563; first compound 0.2 µM): 0.39
- relative viability (NCI-H1563; first compound 0.6325 µM): 0.437
- relative viability (NCI-H1563; first compound 2 µM): 0.397
- relative viability (201T; first compound 0.02 µM): 0.602
- relative viability (201T; first compound 0.2 µM): 0.567
- relative viability (201T; first compound 0.6325 µM): 0.57
- relative viability (201T; first compound 2 µM): 0.489
- relative viability (COR-L 105; first compound 0.02 µM): 0.448
- relative viability (COR-L 105; first compound 0.2 µM): 0.457
- relative viability (COR-L 105; first compound 0.6325 µM): 0.376
- relative viability (COR-L 105; first compound 2 µM): 0.242
- relative viability (NCI-H522; first compound 0.02 µM): 0.88
- relative viability (NCI-H522; first compound 0.6325 µM): 0.864
- relative viability (NCI-H522; first compound 2 µM): 0.8
- relative viability (NCI-H727; first compound 0.02 µM): 0.396
- relative viability (NCI-H727; first compound 0.2 µM): 0.377
- relative viability (NCI-H727; first compound 0.6325 µM): 0.564
- relative viability (NCI-H727; first compound 2 µM): 0.356
- relative viability (NCI-H838; first compound 0.02 µM): 0.274
- relative viability (NCI-H838; first compound 0.2 µM): 0.277
- relative viability (NCI-H838; first compound 0.6325 µM): 0.277
- relative viability (NCI-H838; first compound 2 µM): 0.281
- relative viability (EKVX; first compound 0.02 µM): 0.5
- relative viability (EKVX; first compound 0.2 µM): 0.363
- relative viability (EKVX; first compound 0.6325 µM): 0.622
- relative viability (EKVX; first compound 2 µM): 0.364
- relative viability (NCI-H322M; first compound 0.02 µM): 0.245
- relative viability (NCI-H322M; first compound 0.2 µM): 0.196
- relative viability (NCI-H322M; first compound 0.6325 µM): 0.211
- relative viability (NCI-H322M; first compound 2 µM): 0.215
- relative viability (SW 900; first compound 0.02 µM): 0.559
- relative viability (SW 900; first compound 0.2 µM): 0.549
- relative viability (SW 900; first compound 0.6325 µM): 0.548
- relative viability (SW 900; first compound 2 µM): 0.549
- relative viability (LK-2; first compound 0.02 µM): 0.275
- relative viability (LK-2; first compound 0.2 µM): 0.288
- relative viability (LK-2; first compound 0.6325 µM): 0.345
- relative viability (LK-2; first compound 2 µM): 0.376
